Results on 10 molecules are retold here after PubChem BioAssay AID328 (DTP/NCI, 2004).

Values joined by “and” are separate entries in the source; they are usually repeats but may differ in a detail not shown here. Equal values may be shown once. Inconclusive results and toxic doses are left out.

The experiment deals with BDF1 mice, P388 leukemia ip, median survival T/C. Description: NCI In Vivo Anticancer Drug Screen. Data for tumor model P388 Leukemia (intraperitoneal) in B6D2F1 (BDF1) mice. As to conditions: endpoint: median survival time, higher = longer survival. An outline of the steps:
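Mice carrying the transplantable tumour receive compound or vehicle. Survival is followed in each arm, and the treated measure is divided by the vehicle measure.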

[1] abbreviates: dose: 50.0 mg/kg/injection, schedule: Q01DX009 (ip), vehicle: saline with Tween-80.
Where [2] appears, read: dose: 100.0 mg/kg/injection, schedule: Q01DX009 (ip), vehicle: saline with Tween-80.

Take `CC(C)=CC(=O)OCC1CC[N+](C)(C)C1` (stereo not given): the T/C (dose: 25.0 mg/kg/injection, schedule: Q01DX009 (ip), vehicle: saline) is 111 % of control and the T/C (dose: 50.0 mg/kg/injection, schedule: Q01DX009 (ip), vehicle: saline) is 100 % of control.
Consider `OC1(C#CC2(O)CCCCC2)CCCCC1`, for which the T/C (dose: 50.0 mg/kg/injection, schedule: Q01DX009 (ip), vehicle: Klucel (hydroxypropylcellulose) (HPC)) was 96 % of control; the T/C (dose: 50.0 mg/kg/injection, schedule: Q04DX003 (ip), vehicle: Klucel (hydroxypropylcellulose) (HPC)) is 109 % of control; the T/C (dose: 100.0 mg/kg/injection, schedule: Q01DX009 (ip), vehicle: Klucel (hydroxypropylcellulose) (HPC)) was 100 % of control; the T/C (dose: 100.0 mg/kg/injection, schedule: Q04DX003 (ip), vehicle: Klucel (hydroxypropylcellulose) (HPC)) was 109 % of control; the T/C (dose: 200.0 mg/kg/injection, schedule: Q01DX009 (ip), vehicle: Klucel (hydroxypropylcellulose) (HPC)) is 96 % of control; the T/C (dose: 200.0 mg/kg/injection, schedule: Q04DX003 (ip), vehicle: Klucel (hydroxypropylcellulose) (HPC)) was 100 % of control.
Regarding `CC(/C=N/N=C(N)N)=N\N=C(N)N`, the T/C is, setting by setting: (dose: 40.0 mg/kg/injection, schedule: Q01DX009 (ip), vehicle: water) 86 % of control; (dose: 60.0 mg/kg/injection, schedule: Q01DX010 (ip), vehicle: water) 88 % of control.
Turning to `Cc1cc2c(c(O)c1-c1c(C)cc(O)c3c1C(=O)C=CC3=O)C(=O)C=CC2=O`, the T/C is 107 % of control (dose: 1.25 mg/kg/injection, schedule: Q01DX009 (ip), vehicle: saline with Tween-80); 114 % of control (dose: 2.5 mg/kg/injection, schedule: Q01DX009 (ip), vehicle: saline with Tween-80); 103 % of control (dose: 5.0 mg/kg/injection, schedule: Q01DX009 (ip), vehicle: saline with Tween-80).
Regarding `Nc1ccc2nc3ccc(N)cc3[n+](-c3ccccc3)c2c1`, the T/C (dose: 0.12 mg/kg/injection, schedule: Q01DX009 (ip), vehicle: saline) was 100 % of control; the T/C (dose: 0.25 mg/kg/injection, schedule: Q01DX009 (ip), vehicle: saline) was 110 % of control; the T/C (dose: 0.5 mg/kg/injection, schedule: Q01DX009 (ip), vehicle: saline) is 110 % of control; the T/C (dose: 1.0 mg/kg/injection, schedule: Q03HX024 (ip), vehicle: saline) was 150 % of control; the T/C (dose: 1.13 mg/kg/injection, schedule: Q01DX009 (ip), vehicle: saline) is 116 % of control; the T/C (dose: 1.56 mg/kg/injection, schedule: Q01DX009 (ip), vehicle: saline) is 113 % of control. In addition, the T/C is 108 % of control (dose: 2.0 mg/kg/injection, schedule: Q01DX009 (sc), vehicle: saline); 155 % of control (dose: 2.0 mg/kg/injection, schedule: Q03HX024 (ip), vehicle: saline); 153 % of control (dose: 4.0 mg/kg/injection, schedule: Q01DX009 (ip), vehicle: saline); 103 % of control (dose: 4.0 mg/kg/injection, schedule: Q01DX009 (sc), vehicle: saline); 153 % of control (dose: 4.0 mg/kg/injection, schedule: Q03HX016 (ip), vehicle: saline); 156 % of control (dose: 4.0 mg/kg/injection, schedule: Q03HX024 (ip), vehicle: saline). The T/C runs as follows: (dose: 4.0 mg/kg/injection, schedule: Q04DX003 (sc), vehicle: saline) 101 % of control; (dose: 6.0 mg/kg/injection, schedule: Q01DX009 (ip), vehicle: saline) 166 % of control; (dose: 6.25 mg/kg/injection, schedule: Q01DX009 (ip), vehicle: saline) 154 % of control; (dose: 8.0 mg/kg/injection, schedule: Q01DX009 (ip), vehicle: saline) 155 % of control and 173 % of control; (dose: 8.0 mg/kg/injection, schedule: Q01DX009 (oral), vehicle: saline) 95 % of control; (dose: 8.0 mg/kg/injection, schedule: Q01DX009 (sc), vehicle: saline) 106 % of control. Also, the T/C (dose: 8.0 mg/kg/injection, schedule: Q04DX003 (sc), vehicle: saline) was 103 % of control; the T/C (dose: 8.0 mg/kg/injection, schedule: Q08DX002 (ip), vehicle: saline) is 123 % of control; the T/C (dose: 9.0 mg/kg/injection, schedule: Q01DX009 (ip), vehicle: saline) was 150 % of control; the T/C (dose: 9.3 mg/kg/injection, schedule: Q01DX009 (ip), vehicle: saline) is 154 % of control; the T/C (dose: 16.0 mg/kg/injection, schedule: Q01DX009 (ip), vehicle: saline) was 182 % of control; the T/C (dose: 16.0 mg/kg/injection, schedule: Q01DX009 (oral), vehicle: saline) was 105 % of control. Besides, the T/C runs as follows: (dose: 16.0 mg/kg/injection, schedule: Q01DX009 (sc), vehicle: saline) 96 % of control; (dose: 16.0 mg/kg/injection, schedule: Q04DX003 (oral), vehicle: saline) 99 % of control; (dose: 16.0 mg/kg/injection, schedule: Q04DX003 (sc), vehicle: saline) 106 % of control; (dose: 16.0 mg/kg/injection, schedule: Q08DX002 (ip), vehicle: saline) 122 % of control; (dose: 18.0 mg/kg/injection, schedule: Q01DX009 (ip), vehicle: saline) 154 % of control and 168 % of control and 195 % of control; (dose: 25.0 mg/kg/injection, schedule: Q04DX003 (ip), vehicle: saline) 175 % of control. The T/C is, setting by setting: (dose: 32.0 mg/kg/injection, schedule: Q01DX009 (oral), vehicle: saline) 99 % of control; (dose: 32.0 mg/kg/injection, schedule: Q01DX009 (sc), vehicle: saline) 105 % of control; (dose: 32.0 mg/kg/injection, schedule: Q04DX003 (ip), vehicle: saline) 156 % of control; (dose: 32.0 mg/kg/injection, schedule: Q04DX003 (oral), vehicle: saline) 105 % of control; (dose: 32.0 mg/kg/injection, schedule: Q04DX003 (sc), vehicle: saline) 97 % of control; (dose: 33.0 mg/kg/injection, schedule: Q04DX003 (ip), vehicle: saline) 150 % of control and 170 % of control. Also, the T/C is, setting by setting: (dose: 50.0 mg/kg/injection, schedule: Q04DX003 (ip), vehicle: saline) 175 % of control and 180 % of control; (dose: 64.0 mg/kg/injection, schedule: Q01DX009 (oral), vehicle: saline) 102 % of control; (dose: 64.0 mg/kg/injection, schedule: Q04DX003 (oral), vehicle: saline) 101 % of control; (dose: 64.0 mg/kg/injection, schedule: Q04DX003 (sc), vehicle: saline) 101 % of control; (dose: 75.0 mg/kg/injection, schedule: Q04DX003 (ip), vehicle: saline) 165 % of control; (dose: 128.0 mg/kg/injection, schedule: Q01DX009 (oral), vehicle: saline) 107 % of control. Further, the T/C reads like this: (dose: 128.0 mg/kg/injection, schedule: Q04DX003 (oral), vehicle: saline) 101 % of control; (dose: 256.0 mg/kg/injection, schedule: Q04DX003 (oral), vehicle: saline) 100 % of control.
For `CC(=O)N(O)CCCCCNC(=O)CCC(=O)N(O)CCCCCNC(=O)CCC(=O)N(O)CCCCCN`, the T/C is 101 % of control under setting [1] and 102 % of control under setting [2].
`O=S1(=O)CC2(N3CCOCC3)C3CCC(C3)C21` (stereo not given): the T/C is 111 % of control (dose: 100.0 mg/kg/injection, schedule: Q04DX003 (ip), vehicle: saline with Tween-80) and 92 % of control (dose: 400.0 mg/kg/injection, schedule: Q04DX003 (ip), vehicle: saline with Tween-80).
On to `Cc1ccn(-c2ccccc2)n1`, for which the T/C runs as follows: (dose: 100.0 mg/kg/injection, schedule: Q04DX003 (ip), vehicle: other) 104 % of control; (dose: 200.0 mg/kg/injection, schedule: Q04DX003 (ip), vehicle: other) 113 % of control; (dose: 400.0 mg/kg/injection, schedule: Q04DX003 (ip), vehicle: other) 113 % of control.
For the molecule `O=S(=O)(c1ccccc1CO)c1ccccc1CO`, the T/C (dose: 100.0 mg/kg/injection, schedule: Q04DX002 (ip), vehicle: saline with Tween-80) was 98 % of control; the T/C (dose: 200.0 mg/kg/injection, schedule: Q04DX002 (ip), vehicle: saline with Tween-80) is 95 % of control; the T/C (dose: 400.0 mg/kg/injection, schedule: Q04DX002 (ip), vehicle: saline with Tween-80) was 100 % of control.
As for `OC1CCCCCCCCC1Cl` (stereo not given), the T/C was 104 % of control (dose: 25.0 mg/kg/injection, schedule: Q01DX009 (ip), vehicle: saline with Tween-80); 109 % of control under setting [1]; 100 % of control under setting [2].
